For one series, the target named is p38 MAP-kinase (Homo sapiens, UniProt Q16539). The series can be described thus: p38 MAP-kinase enzymatic assay (phosphorylation of GST-tagged ATF2, chemoluminescence). Particulars: inhibitor concentration 1 μM; activated p38 MAP-kinase 1 nM; ATP 100 μM; read-out: p38 (% Inh @ 1 μM). Type of series: biochemical. The essentials: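 Activated p38 MAP-kinase (1 nM) preincubated 4 h at ambient temperature with 1 μM compound in HEPES pH 7, MgCl2, DTT, TWEEN20, then reacted 1 h with 10 nM GST-ATF2 and 100 μM ATP. Phospho-ATF2 detected by AlphaScreen-type bead luminescence; percent inhibition at 1 μM versus uninhibited and kinase-free controls.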

The next series concerns the target cytochrome P450 2C9 (Homo sapiens, UniProt P11712). The series can be described thus: Determining the cyp2C9 activity (O-demethylation of [O-methyl-14C]-naproxen). The series is classed as in vitro ADME. Particulars: human recombinant cytochrome P450 2C9; 37° C.; <0.4 μM when inhibition >50% at lowest concentration; read-out: CYP 2C9 IC50. In short, it runs like this: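 Recombinant CYP2C9 (40 pmol/ml) with 80 μM [O-methyl-14C]-naproxen in 0.1 M Tris, 5 mM MgCl2; test compound at 50, 10, 2 and 0.4 μM in duplicate. Started with 1 mM NADPH, stopped after 15 min with TCA; 14C-formaldehyde separated by solid-phase extraction and counted by scintillation. IC50 from least-squares fit.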

Series [1] is described as follows: Determining the solubility (saturated solution in McIlvaine buffer pH 7.4, UV spectroscopy). Type of series: physicochemical. Particulars: pH 7.4, aqueous buffer, thermodynamic from solid, shaken 2 hours, 0.75 mg solid in 0.75 ml. In short, it runs like this: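 Excess solid (0.75 mg per 0.75 ml) shaken 2 h in McIlvaine buffer pH 7.4, then filtered through 0.45 μm PTFE membrane with first drops discarded. Dissolved amount measured by UV spectroscopy.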

Converted amounts (≈) assume the structure as drawn.

Chain of p38 MAP-kinase (Q16539 whole entry): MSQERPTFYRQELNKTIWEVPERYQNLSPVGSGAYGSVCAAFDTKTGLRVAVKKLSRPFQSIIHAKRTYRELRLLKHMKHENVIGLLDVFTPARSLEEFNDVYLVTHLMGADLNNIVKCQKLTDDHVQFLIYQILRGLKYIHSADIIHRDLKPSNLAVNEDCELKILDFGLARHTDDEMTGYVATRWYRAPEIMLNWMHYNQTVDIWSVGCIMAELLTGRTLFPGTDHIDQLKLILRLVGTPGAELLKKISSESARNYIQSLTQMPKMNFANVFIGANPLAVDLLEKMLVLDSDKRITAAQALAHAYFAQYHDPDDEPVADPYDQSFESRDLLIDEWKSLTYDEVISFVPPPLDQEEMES
Chain of cytochrome P450 2C9 (P11712 whole entry): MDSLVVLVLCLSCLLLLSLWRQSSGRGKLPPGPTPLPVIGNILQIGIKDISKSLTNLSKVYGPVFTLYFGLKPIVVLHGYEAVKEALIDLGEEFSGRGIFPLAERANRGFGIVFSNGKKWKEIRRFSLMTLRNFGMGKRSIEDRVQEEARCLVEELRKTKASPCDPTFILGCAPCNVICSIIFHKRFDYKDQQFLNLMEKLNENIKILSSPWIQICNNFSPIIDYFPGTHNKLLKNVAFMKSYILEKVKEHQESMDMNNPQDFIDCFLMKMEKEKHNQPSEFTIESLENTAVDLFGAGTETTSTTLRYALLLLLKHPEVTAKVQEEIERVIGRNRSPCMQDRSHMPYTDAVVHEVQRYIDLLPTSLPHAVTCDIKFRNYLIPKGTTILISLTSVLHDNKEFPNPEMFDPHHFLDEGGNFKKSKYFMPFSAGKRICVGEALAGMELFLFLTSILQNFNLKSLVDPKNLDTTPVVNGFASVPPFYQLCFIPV

By IC50 is commonly meant the concentration at which inhibition is half-maximal. For orientation: solubility means how much of the substance goes into solution per volume. Lower therefore signals a poorly soluble substance. Consider `CCOc1c(NC(=O)c2cc3cccc(CN4CCN(C(=O)[C@@H]5CCCN5C)CC4)c3n2C)cc(C(C)(C)C)cc1NS(C)(=O)=O` [11(7), (S)-1-methyl-7-[4-(1-methyl-pyrrolidine-2-carbonyl)-piperazin-1-ylmethyl]-1H-indole-2-carboxylic acid-(5-tert-butyl-3-methanesulphonylamino-2-ethoxy-phenyl)-amide], for which the inhibition at 1 µM at p38 MAP-kinase was found to be 99.3%. In addition, the IC50 on cytochrome P450 2C9 is 410 nM. The amount in solution in series [1] (solubility at 2 h) came to 110 µg/mL (≈ 168 µM).

On to `COc1c(NC(=O)c2cc3cccc(CN4CCN(C(=O)[C@@H]5CCCN5C)CC4)c3n2C)cc(C(F)(F)C(F)(F)F)cc1NS(C)(=O)=O` [Example 14, (S)-1-methyl-7-[4-(1-methyl-pyrrolidine-2-carbonyl)-piperazin-1-ylmethyl]-1H-indole-2-carboxylic acid-(3-methanesulphonylamino-2-methoxy-5-pentafluoroethyl-phenyl)-amide], for which the inhibition at 1 µM at p38 MAP-kinase is 98.8%. Further, the IC50 at cytochrome P450 2C9 amounted to 1430 nM. The same compound had a solubility at 2 h in series [1] of 27 µg/mL (≈ 38.5 µM).

Take `CCN(CC)C1CCN(Cc2cc(C(C)(C)C)cc(NC(=O)c3cc4cccc(CN5CCN(C(=O)[C@@H]6CCCN6C)CC5)c4n3C)c2OC)C1` (stereo partly drawn) [9(4), 1-methyl-7-[4-((2S)-1-methyl-pyrrolidine-2-carbonyl)-piperazin-1-ylmethyl]-1H-indole-2-carboxylic acid-[5-tert-butyl-3-(3-diethylamino-pyrrolidin-1-ylmethyl)-2-methoxy-phenyl]-amide]: on p38 MAP-kinase, the inhibition at 1 µM came out at 98%. The IC50 at cytochrome P450 2C9 was found to be 8110 nM. The compound also yielded a solubility at 2 h in series [1] of 690 µg/mL (≈ 986 µM).

As to `COc1c(NC(=O)c2cc3cccc(CN4CCN(C(=O)[C@@H]5CCCN5C)CC4)c3n2C)cc(C(C)(C)C)cc1C(N)=O` [10(4), (S)-1-methyl-7-[4-(1-methyl-pyrrolidine-2-carbonyl)-piperazin-1-ylmethyl]-1H-indole-2-carboxylic acid-(5-tert-butyl-3-carbamoyl-2-methoxy-phenyl)-amide], the inhibition at 1 µM at p38 MAP-kinase came out at 99.1%. Further, the IC50 on cytochrome P450 2C9 was 440 nM. For the same compound, the concentration in solution in series [1] (solubility at 2 h) came to 370 µg/mL (≈ 628 µM).

`CCCC(=O)Nc1cc(C(C)(C)C)cc(NC(=O)c2cc3cccc(CN4CCN(C(=O)[C@@H]5CCCN5C)CC4)c3n2C)c1OC` [12(1), (S)-1-methyl-7-[4-(1-methyl-pyrrolidine-2-carbonyl)-piperazin-1-ylmethyl]-1H-indole-2-carboxylic acid-(5-tert-butyl-3-butyrylamino-2-methoxy-phenyl)-amide]: the inhibition at 1 µM on p38 MAP-kinase was 87.7%. Besides, the IC50 on cytochrome P450 2C9 stood at 960 nM. The compound further displayed a solubility at 2 h in series [1] of 44 µg/mL (≈ 69.7 µM).

For the compound `COc1c(NC(=O)c2cc3cccc(CN4CCN(C(=O)[C@@H]5CCCN5C)CC4)c3n2C)cc(C(C)(C)C)cc1NS(=O)(=O)C1CC1` [13(1), (S)-1-methyl-7-[4-(1-methyl-pyrrolidine-2-carbonyl)-piperazin-1-ylmethyl]-1H-indole-2-carboxylic acid-(5-tert-butyl-3-cyclopropanesulphonylamino-2-methoxy-phenyl)-amide], on p38 MAP-kinase, the inhibition at 1 µM worked out at 99.3%. Besides, the IC50 at cytochrome P450 2C9 was 670 nM. In series [1], this compound displayed a solubility at 2 h of 12 µg/mL (≈ 18 µM).

As to `CCCS(=O)(=O)Nc1cc(C(C)(C)C)cc(NC(=O)c2cc3cccc(CN4CCN(C(=O)[C@@H]5CCCN5C)CC4)c3n2C)c1OC` [Example 13, (S)-1-methyl-7-[4-(1-methyl-pyrrolidine-2-carbonyl)-piperazin-1-ylmethyl]-1H-indole-2-carboxylic acid-[5-tert-butyl-2-methoxy-3-(propane-1-sulphonylamino)-phenyl]-amide], the inhibition at 1 µM on p38 MAP-kinase was determined as 99.1%. The concentration for half-maximal inhibition (IC50) on cytochrome P450 2C9 came out at 500 nM. The solubility at 2 h in series [1] was found to be 17 µg/mL (≈ 25.5 µM).

On to `COc1c(NC(C)=O)cc(C(C)(C)C)cc1NC(=O)c1cc2cccc(CN3CCN(C(=O)[C@@H]4CCCN4C)CC3)c2n1C` [12(2), (S)-1-methyl-7-[4-(1-methyl-pyrrolidine-2-carbonyl)-piperazin-1-ylmethyl]-1H-indole-2-carboxylic acid-(3-acetylamino-5-tert-butyl-2-methoxy-phenyl)-amide], for which the inhibition at 1 µM at p38 MAP-kinase is 98.2%. For the same compound, at cytochrome P450 2C9, the IC50 turned out to be 3460 nM. This compound also came in with a solubility at 2 h in series [1] of 630 µg/mL (≈ 1050 µM).

Regarding `COc1c(NC(=O)c2cc3cccc(CN4CCN(C(=O)C5(C)CC5)CC4)c3n2C)cc(C(C)(C)C)cc1NS(C)(=O)=O` [Vb, reference compound], the inhibition at 1 µM at p38 MAP-kinase was 99.1%. The IC50 on cytochrome P450 2C9 is < 400 nM. For the same compound, the solubility at 2 h in series [1] is < 1 µg/mL.

With `COc1c(NC(=O)c2cc3cccc(CN4CCN(C(=O)N5CC[C@@H](N(C)C)C5)CC4)c3n2C)cc(C(C)(C)C)cc1NS(C)(=O)=O` [Example 2, (R)-7-[4-(3-dimethylamino-pyrrolidine-1-carbonyl)-piperazin-1-ylmethyl]-1-methyl-1H-indole-2-carboxylic acid(5-tert-butyl-3-methanesulohonylamino-2-methoxy-phenyl)-amide], the inhibition at 1 µM at p38 MAP-kinase is 99.1%. Moreover, the IC50 on cytochrome P450 2C9 came out at 1290 nM. This compound had a solubility at 2 h in series [1] of 10 µg/mL (≈ 15 µM).

As to `COc1c(CN2CCC(N(C)C)CC2)cc(C(C)(C)C)cc1NC(=O)c1cc2cccc(CN3CCN(C(=O)[C@@H]4CCCN4C)CC3)c2n1C` [9(5), (S)-1-methyl-7-[4-(1-methyl-pyrrolidine-2-carbonyl)-piperazin-1-ylmethyl]-1H-indole-2-carboxylic acid-[5-tert-butyl-3-(4-dimethylamino-piperidin-1-ylmethyl)-2-methoxy-phenyl]-amide], the inhibition at 1 µM on p38 MAP-kinase was 97.5%. The IC50 on cytochrome P450 2C9 stood at 6880 nM. In addition, in series [1], the solubility at 2 h is 490 µg/mL (≈ 714 µM).

`COc1c(NC(=O)c2cc3cccc(CN4CCN(C(=O)[C@@H]5CCCN5C)CC4)c3n2C)cc(C(C)(C)C)cc1C(=O)NC(C)C` [10(1), (S)-1-methyl-7-[4-(1-methyl-pyrrolidine-2-carbonyl)-piperazin-1-ylmethyl]-1H-indole-2-carboxylic acid-(5-tert-butyl-3-isopropylcarbamoyl-2-methoxy-phenyl)-amide]: the inhibition at 1 µM at p38 MAP-kinase is 99.1%. Besides, the IC50 on cytochrome P450 2C9 worked out at 1290 nM. For the same compound, the concentration in solution in series [1] (solubility at 2 h) came to 380 µg/mL (≈ 602 µM).

Turning to `COc1c(NC(=O)c2cc3cccc(CN4CCC(C(=O)N5CC[C@@H](N(C)C)C5)CC4)c3n2C)cc(C(C)(C)C)cc1NS(C)(=O)=O` [1(24), (R)-7-[4-(3-dimethylamino-pyrrolidine-1-carbonyl)-piperidin-1-ylmethyl]-1-methyl-1H-indole-2-carboxylic acid-(5-tert-butyl-3-methanesulphonylamino-2-methoxy-phenyl)-amide], the inhibition at 1 µM at p38 MAP-kinase is 54.2%. The 50% inhibitory concentration (IC50) on cytochrome P450 2C9 stood at 2470 nM. In series [1], the solubility at 2 h amounted to 36 µg/mL (≈ 54 µM).

In the case of `COc1c(NC(=O)c2cc3cccc(CN4CCN(C(=O)CN5CC[C@H](N(C)C)C5)CC4)c3n2C)cc(C(C)(C)C)cc1NS(C)(=O)=O` [6(3), (S)-7-{4-[2-(3-dimethylamino-pyrrolidin-1-yl)-acetyl]-piperazin-1-ylmethyl}-1-methyl-1H-indole-2-carboxylic acid-(5-tert-butyl-3-methanesulphonylamino-2-methoxy-phenyl)-amide], the inhibition at 1 µM on p38 MAP-kinase came out at 98.5%. Besides, on cytochrome P450 2C9, the 50% inhibitory concentration (IC50) came out at 2930 nM. For the same compound, the solubility at 2 h in series [1] stood at 910 µg/mL (≈ 1330 µM).

Regarding `COc1c(NC(=O)c2cc3cccc(CN4CCN(C(=O)[C@@H]5CCCN5C)CC4)c3n2C)cc(C(C)(C)C)cc1S(C)(=O)=O` [11(4), (S)-1-methyl-7-[4-(1-methyl-pyrrolidine-2-carbonyl)-piperazin-1-ylmethyl]-1H-indole-2-carboxylic acid-(5-tert-butyl-3-methanesulphonyl-2-methoxy-phenyl)-amide], the inhibition at 1 µM on p38 MAP-kinase is 99.5%. Further, on cytochrome P450 2C9, the IC50 stood at 460 nM. Also, the solubility at 2 h in series [1] was 43 µg/mL (≈ 68.9 µM).

As to `CCNC(=O)c1cc(C(C)(C)C)cc(NC(=O)c2cc3cccc(CN4CCN(C(=O)[C@@H]5CCCN5C)CC4)c3n2C)c1OC` [10(2), (S)-1-methyl-7-[4-(1-methyl-pyrrolidine-2-carbonyl)-piperazin-1-ylmethyl]-1H-indole-2-carboxylic acid-(5-tert-butyl-3-ethylcarbamoyl-2-methoxy-phenyl)-amide], the inhibition at 1 µM on p38 MAP-kinase came out at 99.4%. Moreover, the IC50 on cytochrome P450 2C9 turned out to be 460 nM. Also, the solubility at 2 h in series [1] is 390 µg/mL (≈ 632 µM).

As to `COc1c(NC(=O)c2cc3cccc(CC4CCCN(C(=O)[C@H]5CCCN5C)CC4)c3n2C)cc(C(C)(C)C)cc1NS(C)(=O)=O` (stereo partly drawn) [1(20), 1-methyl-7-[1-((2R)-1-methyl-pyrrolidine-2-carbonyl)-azepan-4-ylmethyl]-1H-indole-2-carboxylic acid-(5-tert-butyl-3-methanesulphonylamino-2-methoxy-phenyl)-amide], the inhibition at 1 µM on p38 MAP-kinase came to 99.1%. Also, the half-maximal inhibitory concentration (IC50) at cytochrome P450 2C9 amounted to 2590 nM. The concentration in solution in series [1] (solubility at 2 h) was 124 µg/mL (≈ 190 µM).

Consider `COc1c(NC(=O)c2cc3cccc(CN4CCN(C(=O)[C@H]5C[C@@H](O)CN5C)CC4)c3n2C)cc(C(C)(C)C)cc1NS(C)(=O)=O` [1(10), 7-[4-((2R,4R)-4-hydroxy-1-methyl-pyrrolidine-2-carbonyl)-piperazin-1-ylmethyl]-1-methyl-1H-indole-2-carboxylic acid(5-tert-butyl-3-methanesulphonylamino-2-methoxy-phenyl)-amide], for which, on p38 MAP-kinase, the inhibition at 1 µM amounted to 99.6%. Further, the IC50 at cytochrome P450 2C9 is 410 nM. The concentration in solution in series [1] (solubility at 2 h) was 43 µg/mL (≈ 65.7 µM).

These data come from patent US8686022B2, “7-(piperazine-1-ymethyl)-1H-indole-2-carboxylic acid (phenyl)-amide derivatives and allied compounds as p38 MAP kinase inhibitors for the treatment of respiratory diseases” (Boehringer Ingelheim International GmbH, priority 2008, dated 2014).
